Holding throughout (assay type): functional
For test [1], the system named is JAR. The test can be described thus: Increase in caspase3/7 production in human JAR cells at 50 uM relative to control.
Test [2] concerns JAR. The test can be described thus: Increase in caspase3/7 production in human JAR cells at 25 uM relative to control.
Test [3] has as its system JAR. The test can be described thus: Increase in caspase3/7 production in human JAR cells at 10 uM relative to control.

Take `C[C@H](c1ccc(Cl)cc1)N1C(=O)c2cc(I)ccc2N(CCCCC(=O)O)C(=O)[C@@H]1c1ccc(Cl)cc1`: the Activity in test [1] is given as 1.97; in test [2], 1.37; in test [3], 0.97.

Consider `COCCOCCN1C(=O)[C@H](c2ccc(Cl)cc2)N([C@H](C)c2ccc(Cl)cc2N)C(=O)c2cc(I)ccc21`, for which the Activity in test [1] came out at 2.92; in test [2] it was 2.84; in test [3] it was 1.29.

Consider `C[C@H](c1ccc(Cl)cc1N)N1C(=O)c2cc(I)ccc2N(CCN2CCOCC2)C(=O)[C@@H]1c1ccc(Cl)cc1`, for which the results for the Activity in test [1], in test [2] and in test [3] were 2.89, 2.87 and 0.9, respectively.

The values above are taken from ChEMBL document CHEMBL1148515, “Enantiomerically pure 1,4-benzodiazepine-2,5-diones as Hdm2 antagonists” (Bioorg Med Chem Lett, 2006).
